Common to all, as to assay: DTP human tumour cell line panel, 48 h
Assay [1] relates to UACC-62 melanoma.
Assay [2] concerns OVCAR-4 ovarian.
Assay [3] has as its system SW-620 colon.
Assay [4] concerns HCT-116 colon.
The subject of assay [5] is CCRF-CEM leukemia.
For assay [6], the system named is IGROV1 ovarian.
Assay [7] has as its system 786-0 renal.
In assay [8] the test system is ACHN renal.
Assay [9] concerns SNB-19 CNS.
In assay [10] the test system is NCI-H522 lung.
The test system of assay [11] is MCF7 breast.

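Values below derive from 48-hour exposures of cells grown in 96-well plates, with endpoints linearly interpolated between the two concentrations bracketing the appropriate inhibition level. The concentration for full growth arrest is given as TGI.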 Some results are limits rather than exact numbers.

With `CC1C(=O)O[C@H]2C1CC[C@@]1(C)[C@H](O)CC[C@@]13C[C@]2(O)OO3` (stereo not given in full), the TGI in [1], in [2], in [3], in assay [4], in assay [5] and in assay [6] was above 100 µM each time. Besides, the TGI in assay [7], in [8] and in assay [9] was above 100 µM throughout.
`CCOP(=O)(OCC)C1=NC=CC=CC1n1c(-c2ccccc2)nn(CC)c1=O` (stereo not given): the TGI in [1], in assay [3], in assay [4], in assay [5], in assay [10] and in [6] was above 100 µM in each case. The TGI in assay [7], in assay [8] and in assay [9] was above 100 µM each time.
As for `NC(=O)c1nnsc1NC=O`, the total growth inhibition concentration (TGI) in assay [1], in assay [3], in assay [4], in assay [11], in assay [5] and in assay [10] was above 100 µM in each case. Moreover, the TGI in assay [6], in [7], in assay [8] and in assay [9] was above 100 µM each time.
As for `O=C(OCc1ccccc1)N1CCN(C(=O)OCc2ccccc2)CCN(C(=O)OCc2ccccc2)CCN(C(=O)OCc2ccccc2)CCN(C(=O)OCc2ccccc2)CC1`, the TGI in [1], in assay [2], in assay [3], in assay [4], in [11] and in assay [10] was above 100 µM in each case. The TGI in assay [7] is 48.4 µM; in assay [8], above 100 µM; in [9] it was above 100 µM.
With `O=c1c2ccccc2[nH]c2cc(O)cc(O)c12`, the TGI in [1] was above 100 µM; in assay [2], above 100 µM; in assay [4], above 100 µM; in assay [5], above 100 µM; in assay [10], 86.3 µM; in assay [6] it was above 100 µM. Besides, the TGI in assay [8] and in assay [9] was above 100 µM each time.
`CC(C)OC(=O)[C@@H](O)[C@H](CO)C1=CC([Si](C)(C)c2ccccc2)=CON1`: the TGI in assay [1], in [2], in assay [3], in assay [4], in assay [11] and in assay [7] was above 100 µM throughout. Besides, the concentration for total growth inhibition (TGI) in [8] and in [9] was above 100 µM each time.
Regarding `O=C1C(NCCN2CCOCC2)=C(Cl)C(=O)c2ncccc21`, the concentration for total growth inhibition (TGI) in assay [1] came to 2.17 µM; in assay [3], 1.01 µM; in assay [4] it was 1.14 µM; in assay [11] it was 1.14 µM; in assay [5], 1.1 µM; in [6] it was 2.3 µM. Further, the TGI came out at 1.6 µM in [7], 2.31 µM in assay [8] and 2.75 µM in assay [9].
As to `COc1ccccc1NC(=O)O/N=C(/Cl)C(C)C`, the TGI in assay [1] was determined as 37.4 µM; in assay [3] it was 3.39 µM; in [4], 29.3 µM; in assay [5], 3.57 µM; in assay [10], 3.37 µM; in assay [6], 32.7 µM. The TGI in assay [7] was 24.9 µM; in assay [8], 17.4 µM; in assay [9], above 56.4 µM.
Regarding `CCCCCCC(C)OC(=O)/C=C(\CC(=O)OC(C)CCCCCC)C(=O)OC(C)CCCCCC` (stereo not given), the TGI in [1], in assay [2], in assay [3], in [4], in assay [10] and in assay [6] was above 100 µM throughout. The concentration for total growth inhibition (TGI) in [7] and in assay [8] was above 100 µM in each case.
`COc1ccc(Oc2nc(C#CC(C)(C)O)nc(Oc3ccc(OC)cc3)n2)cc1`: the TGI in assay [1] is 25 µM; in assay [3], 3.47 µM; in [4], above 100 µM; in assay [11] it was 3.15 µM; in assay [5] it was 4.36 µM; in [10] it was 9.36 µM. Further, the TGI amounted to 18.9 µM in assay [6], 3.13 µM in assay [8] and 41 µM in assay [9].
In the case of `CCN(CC)CCCC(C)NC(=O)c1ccc2c(c1)C(=O)c1ccccc1C2=O` (stereo not given), the TGI in [1] turned out to be 39.3 µM; in assay [2], 30.4 µM; in assay [3], 43.1 µM; in assay [4], 51.7 µM; in assay [5], 61.2 µM; in assay [10] it was 37.4 µM. Besides, the concentration for total growth inhibition (TGI) came to 55.3 µM in [6], 39.5 µM in assay [7], 38.2 µM in assay [8] and 55.3 µM in assay [9].
`CC(NC(C#N)CC12CC3CC(CC(C3)C1)C2)c1ccccc1` (stereo not given): the TGI is above 100 µM in assay [1]; above 100 µM in [3]; above 100 µM in [4]; above 100 µM in assay [11]; 59.4 µM in assay [5]; above 100 µM in assay [10]. Further, the total growth inhibition concentration (TGI) in assay [6], in assay [8] and in [9] was above 100 µM in each case.
Consider `O=C(N/N=C\c1ccccc1)Nc1cccc2ccccc12`, for which the TGI in assay [1], in assay [2], in [3], in [4], in assay [5] and in [10] was above 100 µM throughout. The TGI in assay [6] was above 100 µM; in [7] it was 30.1 µM; in assay [8] it was 39 µM; in [9] it was above 100 µM.
As to `NS(=O)(=O)c1nnc(NS(=O)(=O)c2ccccc2C(=O)O)s1`, the total growth inhibition concentration (TGI) in [1], in assay [2], in assay [3], in assay [4], in assay [11] and in [10] was above 100 µM throughout. The TGI in assay [7], in [8] and in [9] was above 100 µM in each case.
Regarding `CC(C)C(=O)/C=C/c1ccc(Cl)c(Cl)c1`, the TGI in [1] was 34.9 µM; in assay [2], above 100 µM; in [3], 36.3 µM; in [4] it was 15.2 µM; in assay [5], 81.7 µM; in assay [10], 35.1 µM. Besides, the TGI stood at 40.4 µM in [6], 27.6 µM in assay [7], 32.7 µM in [8] and 28.5 µM in assay [9].
As to `Cc1nc2ccccc2n1Cc1nnc(N)o1`, the TGI in assay [1], in assay [3], in assay [4], in assay [11], in [5] and in assay [10] was above 100 µM throughout. For the same molecule, the TGI in assay [6], in assay [7], in assay [8] and in assay [9] was above 100 µM throughout.
In the case of `O=C1c2ccccc2C(=O)c2c(O)ccc(O)c21`, the concentration for total growth inhibition (TGI) in [1], in [2], in assay [3], in assay [4], in [5] and in assay [10] was above 100 µM each time. Further, the TGI in assay [6], in [7], in [8] and in assay [9] was above 100 µM throughout.
As to `c1ccc2c(c1)CC1COc3ccccc3C1O2` (stereo not given), the TGI in [1], in assay [3], in [4], in [11], in [5] and in assay [10] was above 100 µM each time. Besides, the total growth inhibition concentration (TGI) in assay [6], in assay [7] and in assay [8] was above 100 µM each time.
As to `COc1cc(C2c3cc4c(cc3[C@@H](Nc3cccc([N+](=O)[O-])c3)C3COC(=O)[C@H]23)OCO4)cc(OC)c1O` (stereo not given in full), the TGI was 15.7 µM in assay [1]; above 100 µM in assay [2]; above 65.4 µM in [3]; 21.6 µM in assay [4]; above 100 µM in assay [11]; 11.7 µM in assay [10]. Also, the values for the total growth inhibition concentration (TGI) in assay [6] and in [9] were above 84.4 µM and above 31.4 µM, respectively.
`COc1ccc(-c2cc(-c3cc(F)c(Cl)cc3Cl)on2)cc1OC`: the concentration for total growth inhibition (TGI) in assay [2], in assay [3], in assay [4], in assay [5], in assay [10] and in assay [6] was above 100 µM throughout. The concentration for total growth inhibition (TGI) in [7], in assay [8] and in assay [9] was above 100 µM throughout.
Regarding `CS(=O)(=O)OCCCOS(C)(=O)=O`, the total growth inhibition concentration (TGI) in assay [1], in assay [2], in assay [3], in assay [4], in [5] and in assay [10] was above 100 µM each time. The concentration for total growth inhibition (TGI) in [6], in assay [7], in [8] and in assay [9] was above 100 µM each time.
On to `CC[C@@]12C=CC(=S)N(CCSc3ccccc3)[C@@H]1c1c(n(S(=O)(=O)c3ccc(OC)cc3)c3ccccc13)CC2`, for which the concentration for total growth inhibition (TGI) in assay [1], in [3], in assay [4], in assay [11], in assay [5] and in assay [10] was above 100 µM throughout. For the same molecule, the concentration for total growth inhibition (TGI) in [7] and in assay [9] was above 100 µM throughout.

Source of the values: PubChem BioAssay (NCI).
